Measurements reported in US10913742B2, “Oxadiazolones as transient receptor potential channel inhibitors” (Genentech, Inc., priority 2017, dated 2021).
Where two headings read alike, the source gives them in different places.

Key:
human TRPA1 = human TRPA1 (Homo sapiens (Human), UniProt O75762); assay: hTRPA1 CHO Ca2+ FLIPR assay (block of cinnamaldehyde induced calcium influx); format: cell-based
Outline: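 CHO cells expressing TRPA1 loaded with calcium dye (1 h at 37° C, then 15 min at room temperature) in HBSS/20 mM HEPES pH 7.4/0.02% BSA. Compounds preincubated 20 min at room temperature before cinnamaldehyde addition, with FLIPR Ca2+ readout. IC50 from Hill fit, n fixed at 1.5.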

[1] = Human liver microsome clearance (HLM-CLhep); format: in vitro ADME; details: 0.5 mg/ml protein, 1 mM NADPH, 1 μM compound, 37° C.
Method: (§1) Certain pharmacokinetic attributes were evaluated for some compounds of the present disclosure. […] The compounds of the present disclosure were discovered to provide for an unexpected combination of high potency as measured by hTRPA1 IC50 and high stability as measured by RLM-CLhep, HLM-CLhep and Rat IV PK.
(§2) The reactions were incubated at 37° C. for 0, 20, 40 and 60 minutes and at each allotted time point an aliquot of the reaction mixture was added to ice-cold acetonitrile with internal standard. The samples were subsequently centrifuged at 3000×g for 10 minutes and supernatant was diluted in water before LC-MS/MS analysis.

[2] = Rat liver microsome clearance (RLM-CLhep); format: in vitro ADME; details: 0.5 mg/ml protein, 1 mM NADPH, 1 μM compound, 37° C.
Method: as §1, §2

[3] = Rat IV PK (hepatic clearance); format: in vivo; details: rat IV dose of 1 mg/kg
Method: as §1

[4] = repeated from Table 1, read-out: hTRPA1 IC50
[5] = CHO cells expressing TRPA1, 75 uM cinnamaldehyde, Hill coefficient fixed to 1.5, read-out: hTRPA1 (hTRPA1 CHO Ca2+ MAX EVO (IC50))

Sequence of human TRPA1 (O75762 whole entry): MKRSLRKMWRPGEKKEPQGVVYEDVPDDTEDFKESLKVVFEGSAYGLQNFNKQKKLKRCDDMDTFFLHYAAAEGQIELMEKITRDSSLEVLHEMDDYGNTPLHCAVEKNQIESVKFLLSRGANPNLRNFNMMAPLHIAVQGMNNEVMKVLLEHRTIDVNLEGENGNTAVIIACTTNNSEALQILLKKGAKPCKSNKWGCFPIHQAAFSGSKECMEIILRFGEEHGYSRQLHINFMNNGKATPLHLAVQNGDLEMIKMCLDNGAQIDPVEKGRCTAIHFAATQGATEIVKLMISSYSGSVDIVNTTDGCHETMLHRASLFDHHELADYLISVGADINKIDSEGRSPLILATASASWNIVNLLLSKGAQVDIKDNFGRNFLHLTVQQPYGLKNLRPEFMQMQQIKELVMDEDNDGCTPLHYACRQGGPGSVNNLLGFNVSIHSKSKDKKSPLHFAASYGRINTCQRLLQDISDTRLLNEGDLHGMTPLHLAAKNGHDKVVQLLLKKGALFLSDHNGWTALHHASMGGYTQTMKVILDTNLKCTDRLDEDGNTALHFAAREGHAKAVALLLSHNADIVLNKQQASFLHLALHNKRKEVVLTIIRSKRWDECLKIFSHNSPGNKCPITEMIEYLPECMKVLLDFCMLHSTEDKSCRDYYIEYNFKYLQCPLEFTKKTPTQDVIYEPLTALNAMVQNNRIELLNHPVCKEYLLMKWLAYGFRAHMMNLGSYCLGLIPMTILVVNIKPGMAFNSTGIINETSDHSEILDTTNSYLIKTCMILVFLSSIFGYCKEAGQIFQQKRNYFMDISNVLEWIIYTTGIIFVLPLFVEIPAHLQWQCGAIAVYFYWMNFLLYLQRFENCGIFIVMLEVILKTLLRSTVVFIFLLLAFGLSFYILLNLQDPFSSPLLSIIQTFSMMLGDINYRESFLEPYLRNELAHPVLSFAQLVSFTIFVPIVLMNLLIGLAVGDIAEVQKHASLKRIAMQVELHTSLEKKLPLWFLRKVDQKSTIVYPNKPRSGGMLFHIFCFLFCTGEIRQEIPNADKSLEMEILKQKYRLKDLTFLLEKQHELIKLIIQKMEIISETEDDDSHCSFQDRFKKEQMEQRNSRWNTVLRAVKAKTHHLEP

For `Cn1cnc2ncn(Cc3nn(CCc4ccc(Cl)cc4)c(=O)o3)c(=O)c21` [Example Compound 1, 3-[2-(4-chlorophenyl)ethyl]-5-[(7-methyl-6-oxo-purin-1-yl)methyl]-1,3,4-oxadiazol-2-one], the IC50 (human TRPA1; [4]) was 0.095 µM, the “HLM-CLhep (human liver microsome clearance)” value (“HLM-CLhep” for short) [1] was 11 mL/min/kg and the “RLM-CLhep (rat liver microsome clearance)” value (from here on “RLM-CLhep”) [2] was 34 mL/min/kg. The “Rat IV PK (hepatic clearance)” value [3] was 48 mL/min/kg.

With `Cn1cnc2ncn(Cc3nn(C[C@@H](F)c4ccc(Cl)cc4)c(=O)o3)c(=O)c21` [Example Compound 14, (S)-3-(2-(4-chlorophenyl)-2-fluoroethyl)-5-((7-methyl-6-oxo-6H-purin-1 (7H)-yl)methyl)-1,3,4-oxadiazol-2(3H)-one] the IC50 (human TRPA1; [4]) was 0.034 µM, the “HLM-CLhep” value [1] was 6 mL/min/kg and the “RLM-CLhep” value [2] was 28 mL/min/kg. For the same molecule, the “Rat IV PK (hepatic clearance)” value [3] was 17 mL/min/kg.

With `Cn1cnc2ncn(Cc3nn([C@H]4C[C@H](c5ccc(Cl)cc5)C4)c(=O)o3)c(=O)c21` [Example Compound 50, 3-[3-(4-chlorophenyl)cyclobutyl]-5-[(7-methyl-6-oxo-purin-1-yl)methyl]-1,3,4-oxadiazol-2-one] the “HLM-CLhep” value [1] was 5 mL/min/kg, the “RLM-CLhep” value [2] was 12 mL/min/kg and the “Rat IV PK (hepatic clearance)” value [3] was 10 mL/min/kg.

In the case of `Cn1cnc2ncn(Cc3nn([C@@H]4CC[C@@H](c5ccc(Cl)cc5)C4)c(=O)o3)c(=O)c21` [compound 100, 5-[(7-methyl-6-oxo-purin-1-yl)methyl]-3-[(1R,3R)-3-(4-chlorophenyl)cyclopentyl]-1,3,4-oxadiazol-2-one], the IC50 (human TRPA1; [5]) is reported as 0.00959 µM.

In the case of `Cn1cnc2ncn(Cc3nn([C@H]4C[C@H](c5ccc(OC(F)F)cc5)C4)c(=O)o3)c(=O)c21` [compound 103, 3-[3-[(trans)-4-(difluoromethoxy)phenyl]cyclobutyl]-5-[(7-methyl-6-oxo-purin-1-yl)methyl]-1,3,4-oxadiazol-2-one], the IC50 (human TRPA1; [5]) is reported as 0.026 µM.

Work on `Cc1ccnc2ncn(Cc3nn([C@H]4C[C@](F)(c5ccc(Cl)cc5)C4)c(=O)o3)c(=O)c12` [compound 104, 3-[3-(4-chlorophenyl)-3-fluoro-cyclobutyl]-5-[(5-methyl-4-oxo-pyrido[2,3-d]pyrimidin-3-yl)methyl]-1,3,4-oxadiazol-2-one] yielded an IC50 (human TRPA1; [5]) of 0.0296 µM.

`Cn1cnc2ncn(Cc3nn([C@H]4C[C@](F)(c5ccc(Cl)cc5)C4)c(=O)o3)c(=O)c21` [compound 105, trans-3-[3-(4-chlorophenyl)-3-fluoro-cyclobutyl]-5-[(7-methyl-6-oxo-purin-1-yl)methyl]-1,3,4-oxadiazol-2-one] showed an IC50 (human TRPA1; [5]) of 0.064 µM.

Molecule `Cn1cnc2ncn(Cc3nn([C@H]4C[C@H](c5ccc(Cl)c(F)c5)C4)c(=O)o3)c(=O)c21` [compound 106, 3-[3-(4-chloro-3-fluoro-phenyl)cyclobutyl]-5-[(7-methyl-6-oxo-purin-1-yl)methyl]-1,3,4-oxadiazol-2-one] has an IC50 (human TRPA1; [5]) of 0.0299 µM.

`Cc1ccnc2ncn(Cc3nn([C@H]4C[C@H](c5ccc(Cl)cc5)C4)c(=O)o3)c(=O)c12` [compound 107, 3-[3-(4-chlorophenyl)cyclobutyl]-5-[(5-methyl-4-oxo-pyrido[2,3-d]pyrimidin-3-yl)methyl]-1,3,4-oxadiazol-2-one] gave an IC50 (human TRPA1; [5]) of 0.0063 µM.

For `Cn1cnc2ncn(Cc3nn([C@H]4C[C@H](c5ccc(C(F)(F)F)cc5)C4)c(=O)o3)c(=O)c21` [compound 111, 5-[(7-methyl-6-oxo-purin-1-yl)methyl]-3-[3-[4-(trifluoromethyl)phenyl]cyclobutyl]-1,3,4-oxadiazol-2-one], the IC50 (human TRPA1; [5]) was 0.09 µM.

For `Cn1cnc2ncn(Cc3nn([C@H]4C[C@H](c5ccc(F)cc5)C4)c(=O)o3)c(=O)c21` [compound 112, 3-[3-(4-fluorophenyl)cyclobutyl]-5-[(7-methyl-6-oxo-purin-1-yl)methyl]-1,3,4-oxadiazol-2-one], the IC50 (human TRPA1; [5]) was 0.0648 µM.

In the case of `Cn1cnc2ncn(Cc3nn([C@H]4C[C@H](c5ccc6ccccc6c5)C4)c(=O)o3)c(=O)c21` [compound 113, 5-[(7-methyl-6-oxo-purin-1-yl)methyl]-3-[3-(2-naphthyl)cyclobutyl]-1,3,4-oxadiazol-2-one], the IC50 (human TRPA1; [5]) is reported as 0.0178 µM.
